Results: paper PMC7485652 (Saudi Journal of Medicine & Medical Sciences, 2020)
Like-named read-outs stand apart in the source and are kept apart here. Blank lines part the entries; values can stand above or below the compound they belong to.

How the values were obtained:
CYP3A4 = settings: cited from earlier work
[1] = with probenecid, by inhibition of UGT glucuronidation enzymes; cited from earlier work
[2] = cited from earlier work; for decrease of plasma concentration of quetiapine: administration of lamotrigine
[3] = for plasma level of quetiapine / hmax: male rats; for hmax: mean±SD
[4] = quetiapine 50 mg/kg oral after probenecid 50 mg/kg oral
[5] = quetiapine alone, 50 mg/kg single oral dose

SMILES: CCCC(CCC)C(=O)O [Valproic acid]
inhibition of CYP3A4 (CYP3A4): weak inhibitor

SMILES: Cc1cc2c(s1)Nc1ccccc1N=C2N1CCN(C)CC1 [olanzapine]
level of olanzapine [1]: increases

plasma level of quetiapine [3, 4]: 323 ± 128 ng/mL
hmax [3, 4]: 0.63 ± 0.3 h
plasma level of quetiapine [3, 5]: 155 ± 37 ng/mL
hmax [3, 5]: 5 ± 2 h
difference in half-life of quetiapine between groups ([3]; quetiapine plus probenecid vs quetiapine alone, rats): no significant difference
SMILES: OCCOCCN1CCN(C2=Nc3ccccc3Sc3ccccc32)CC1 [Quetiapine]
decrease of plasma concentration of quetiapine ([2]; study with 22 patients): 58%
decrease of plasma concentration of quetiapine ([2]; study with 144 patients): 17%
increase of plasma level of quetiapine ([2]; co-administered valproic acid, elderly patients): 77%
increase of Cmax of quetiapine ([2]; coadministered with sodium divalproex, adult patients, nonsignificant): 17%
change in AUC τ of quetiapine ([2]; coadministered with sodium divalproex, adult patients): no changes
effect of coadministration on quetiapine ([2]; coadministered with valproic acid, adult patients, ref Santoro et al. 20): nonsignificant results
